Measured values as given in US20230085307A1, “PYRIDAZINONE COMPOUND AND HERBICIDE” (NISSAN CHEMICAL CORPORATION, priority 2019, published 2023).

Key:
[1] = tested on: lambsquarters; experiment: Test Example 5: herbicidal effect by foliage application, plastic box (Table 20, symbol O); format: in vivo, lambsquarters (Chenopodium album); settings: evaluated three weeks after application
Summary of the method: (§1)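 Foliar spray test: emulsion formulation diluted in water to a set application rate, sprayed onto 14-day-old plants raised in diluvial soil at 25° C to 30° C under glass. Both herbicidal effect and crop effect rated visually three weeks later.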

[2] = tested on: velvetleaf; experiment: Test Example 5: herbicidal effect by foliage application, plastic box (Table 20, symbol M); format: in vivo, velvetleaf (Abutilon theophrasti); settings: evaluated three weeks after application
Summary of the method: as §1

[3] = tested on: barnyard grass; experiment: Test Example 4: herbicidal effect by soil treatment (Table 19, symbol H); format: in vivo, barnyard grass (Echinochloa crus-galli); settings: amount of applied herbicide 320 g/ha
Summary of the method: (§2)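 Step 1: sow seeds in sterilized diluvial soil, cover ~1.5 cm. Step 2: spray diluted emulsion onto soil surface at predetermined rate. Step 3: greenhouse, 25–30° C, three weeks. Step 4: grade effect on each plant by earlier criteria.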

[4] = tested on: redroot pigweed; experiment: Test Example 5: herbicidal effect by foliage application, plastic box (Table 20, symbol N); format: in vivo, redroot pigweed (Amaranthus retroflexus); settings: evaluated three weeks after application
Summary of the method: as §1

[5] = tested on: windgrass; experiment: Test Example 4: herbicidal effect by soil treatment (Table 19, symbol L); format: in vivo, windgrass (Apera spica-venti); settings: amount of applied herbicide 320 g/ha
Summary of the method: as §2

[6] = tested on: chickweed; experiment: Test Example 4: herbicidal effect by soil treatment (Table 19, symbol P); format: in vivo, common chickweed (Stellaria media); settings: amount of applied herbicide 320 g/ha
Summary of the method: as §2

[7] = tested on: green foxtail; experiment: Test Example 5: herbicidal effect by foliage application, plastic box (Table 20, symbol G); format: in vivo, green foxtail (Setaria viridis); settings: evaluated three weeks after application
Summary of the method: as §1

[8] = tested on: velvetleaf; experiment: Test Example 4: herbicidal effect by soil treatment (Table 19, symbol M); format: in vivo, velvetleaf (Abutilon theophrasti); settings: amount of applied herbicide 320 g/ha
Summary of the method: as §2

[9] = tested on: persian speedwell; experiment: Test Example 5: herbicidal effect by foliage application, plastic box (Table 20, symbol R); format: in vivo, Persian speedwell (Veronica persica); settings: evaluated three weeks after application
Summary of the method: as §1

[10] = tested on: rice flat sedge; experiment: Test Example 3: herbicidal effect by foliage application, Wagner pot (Table 18, symbol E); format: in vivo, rice flat sedge (Cyperus iria)
Summary of the method: (§3)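 Plants were sown in alluvial soil held under 0.1–0.5 cm standing water and grown 14 days in a greenhouse at 25–30 °C. An emulsifiable formulation, water-diluted to the set dose, was then sprayed onto the foliage, and effects were scored three weeks later using previously defined criteria.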

[11] = tested on: barnyard grass; experiment: Test Example 3: herbicidal effect by foliage application, Wagner pot (Table 18, symbol H); format: in vivo, barnyard grass (Echinochloa crus-galli)
Summary of the method: as §3

[12] = tested on: southern crabgrass; experiment: Test Example 4: herbicidal effect by soil treatment (Table 19, symbol F); format: in vivo, southern crabgrass (Digitaria ciliaris); settings: amount of applied herbicide 320 g/ha
Summary of the method: as §2

[13] = tested on: Italian ryegrass; experiment: Test Example 4: herbicidal effect by soil treatment (Table 19, symbol K); format: in vivo, Italian ryegrass (Lolium multiflorum); settings: amount of applied herbicide 320 g/ha
Summary of the method: as §2

[14] = tested on: wild oat; experiment: Test Example 5: herbicidal effect by foliage application, plastic box (Table 20, symbol I); format: in vivo, wild oat (Avena fatua); settings: evaluated three weeks after application
Summary of the method: as §1

[15] = tested on: redroot pigweed; experiment: Test Example 4: herbicidal effect by soil treatment (Table 19, symbol N); format: in vivo, redroot pigweed (Amaranthus retroflexus); settings: amount of applied herbicide 320 g/ha
Summary of the method: as §2

[16] = tested on: Italian ryegrass; experiment: Test Example 5: herbicidal effect by foliage application, plastic box (Table 20, symbol K); format: in vivo, Italian ryegrass (Lolium multiflorum); settings: evaluated three weeks after application
Summary of the method: as §1

[17] = tested on: windgrass; experiment: Test Example 5: herbicidal effect by foliage application, plastic box (Table 20, symbol L); format: in vivo, windgrass (Apera spica-venti); settings: evaluated three weeks after application
Summary of the method: as §1

[18] = tested on: southern crabgrass; experiment: Test Example 5: herbicidal effect by foliage application, plastic box (Table 20, symbol F); format: in vivo, southern crabgrass (Digitaria ciliaris); settings: evaluated three weeks after application
Summary of the method: as §1

[19] = tested on: chickweed; experiment: Test Example 5: herbicidal effect by foliage application, plastic box (Table 20, symbol P); format: in vivo, common chickweed (Stellaria media); settings: evaluated three weeks after application
Summary of the method: as §1

[20] = tested on: green foxtail; experiment: Test Example 4: herbicidal effect by soil treatment (Table 19, symbol G); format: in vivo, green foxtail (Setaria viridis); settings: amount of applied herbicide 320 g/ha
Summary of the method: as §2

[21] = tested on: persian speedwell; experiment: Test Example 4: herbicidal effect by soil treatment (Table 19, symbol R); format: in vivo, Persian speedwell (Veronica persica); settings: amount of applied herbicide 320 g/ha
Source text: [Test Example 4] Herbicidal Effect Test by Soil Treatment
Sterilized diluvial soil was placed in a plastic box having a length of 21 cm, a width of 13 cm, and a depth of 7 cm. The seeds of each of southern crabgrass, green foxtail, barnyard grass, wild oat, blackgrass, Italian ryegrass, windgrass, velvetleaf, redroot pigweed, lambsquarters, chickweed, false cleavers, persian speedwell, corn, soybean, rice, wheat, beet, and rapeseed were sowed in a spot-like manner and covered with the soil having a thickness of about 1.5 cm. Subsequently, the emulsion agent of the compound of the present invention prepared according to Formulation Example 2 was diluted with water so as to achieve a predetermined herbicide amount, and the diluted emulsion agent was uniformly applied to the surface of the soil with a small-sized spray. The plastic box was placed in a greenhouse at 25° C. to 30° C. for growth of the plants. Three weeks after the herbicide application, the effect of the herbicide on each plant was evaluated according to the criteria of Test Example 1.

[22] = tested on: Chinese sprangletop; experiment: Test Example 3: herbicidal effect by foliage application, Wagner pot (Table 18, symbol D); format: in vivo, chinese sprangletop (Leptochloa chinensis)
Summary of the method: as §3

[23] = tested on: wild oat; experiment: Test Example 4: herbicidal effect by soil treatment (Table 19, symbol I); format: in vivo, wild oat (Avena fatua); settings: amount of applied herbicide 320 g/ha
Summary of the method: as §2

[24] = tested on: barnyard grass; experiment: Test Example 5: herbicidal effect by foliage application, plastic box (Table 20, symbol H); format: in vivo, barnyard grass (Echinochloa crus-galli); settings: evaluated three weeks after application
Summary of the method: as §1

[25] = tested on: blackgrass; experiment: Test Example 5: herbicidal effect by foliage application, plastic box (Table 20, symbol J); format: in vivo, blackgrass (Alopecurus myosuroides); settings: evaluated three weeks after application
Summary of the method: as §1

[26] = tested on: lambsquarters; experiment: Test Example 4: herbicidal effect by soil treatment (Table 19, symbol O); format: in vivo, lambsquarters (Chenopodium album); settings: amount of applied herbicide 320 g/ha
Summary of the method: as §2

[27] = tested on: blackgrass; experiment: Test Example 4: herbicidal effect by soil treatment (Table 19, symbol J); format: in vivo, blackgrass (Alopecurus myosuroides); settings: amount of applied herbicide 320 g/ha
Summary of the method: as §2

[28] = amount of applied herbicide 320 g/ha
[29] = amount of applied herbicide 320 g/ha, foliage application after 14-day growth

SMILES: COCCOC(=O)Oc1c(C)nn(C)c(=O)c1-c1c(-c2ccc(F)cc2OC)sc2ccc(Cl)cc12 [2-114]
- herbicidal effect on O: lambsquarters ([1]; foliage application, 320 g/ha): 3 (Herbicidal rate of 40% or more and less than 70%)
- herbicidal effect on M: velvetleaf ([2]; foliage application, 320 g/ha): 3 (Herbicidal rate of 40% or more and less than 70%)
- H: barnyard grass, herbicidal effect rating [3]: 0 (Herbicidal rate of 5% or less (almost no effect))
- herbicidal effect on N: redroot pigweed ([4]; foliage application, 320 g/ha): 1 (Herbicidal rate of 5% or more and less than 20%)
- L: windgrass, herbicidal effect rating [5]: 0 (Herbicidal rate of 5% or less (almost no effect))
- P: chickweed, herbicidal effect rating [6]: 4 (Herbicidal rate of 70% or more and less than 90%)
- herbicidal effect on G: green foxtail ([7]; foliage application, 320 g/ha): 1 (Herbicidal rate of 5% or more and less than 20%)
- M: velvetleaf, herbicidal effect rating [8]: 0 (Herbicidal rate of 5% or less (almost no effect))
- herbicidal effect on R: persian speedwell ([9]; foliage application, 320 g/ha): 3 (Herbicidal rate of 40% or more and less than 70%)
- herbicidal effect on E: rice flat sedge [10, 28]: 5 (Herbicidal rate of 90% or more (almost completely withered))
- herbicidal effect on H: barnyard grass [11, 28]: 4 (Herbicidal rate of 70% or more and less than 90%)
- F: southern crabgrass, herbicidal effect rating [12]: 0 (Herbicidal rate of 5% or less (almost no effect))
- K: Italian ryegrass, herbicidal effect rating [13]: 0 (Herbicidal rate of 5% or less (almost no effect))
- herbicidal effect on I: wild oat ([14]; foliage application, 320 g/ha): 0 (Herbicidal rate of 5% or less (almost no effect))
- N: redroot pigweed, herbicidal effect rating [15]: 5 (Herbicidal rate of 90% or more (almost completely withered))
- herbicidal effect on K: Italian ryegrass ([16]; foliage application, 320 g/ha): 0 (Herbicidal rate of 5% or less (almost no effect))
- herbicidal effect on L: windgrass ([17]; foliage application, 320 g/ha): 4 (Herbicidal rate of 70% or more and less than 90%)
- herbicidal effect on F: southern crabgrass ([18]; foliage application, 320 g/ha): 0 (Herbicidal rate of 5% or less (almost no effect))
- herbicidal effect on P: chickweed ([19]; foliage application, 320 g/ha): 5 (Herbicidal rate of 90% or more (almost completely withered))
- G: green foxtail, herbicidal effect rating [20]: 0 (Herbicidal rate of 5% or less (almost no effect))
- R: persian speedwell, herbicidal effect rating [21]: 0 (Herbicidal rate of 5% or less (almost no effect))
- herbicidal effect on D: Chinese sprangletop [22, 28]: 3 (Herbicidal rate of 40% or more and less than 70%)
- I: wild oat, herbicidal effect rating [23]: 0 (Herbicidal rate of 5% or less (almost no effect))
- herbicidal effect on H: barnyard grass ([24]; foliage application, 320 g/ha): 3 (Herbicidal rate of 40% or more and less than 70%)
- herbicidal effect on J: blackgrass ([25]; foliage application, 320 g/ha): 4 (Herbicidal rate of 70% or more and less than 90%)
- O: lambsquarters, herbicidal effect rating [26]: 3 (Herbicidal rate of 40% or more and less than 70%)

SMILES: COc1cc(F)ccc1-c1sc2cc(F)c(F)cc2c1-c1c(O)c(C)nn(C)c1=O [5-029]
- Herbicidal effect by foliage application, O: lambsquarters [1, 29]: 5 (Herbicidal rate of 90% or more (almost completely withered))
- Herbicidal effect by foliage application, M: velvetleaf [2, 29]: 5 (Herbicidal rate of 90% or more (almost completely withered))
- H: barnyard grass, herbicidal effect grade [3]: 0 (Herbicidal rate of 5% or less (almost no effect))
- Herbicidal effect by foliage application, N: redroot pigweed [4, 29]: 5 (Herbicidal rate of 90% or more (almost completely withered))
- P: chickweed, herbicidal effect grade [6]: 3 (Herbicidal rate of 40% or more and less than 70%)
- Herbicidal effect by foliage application, G: green foxtail [7, 29]: 5 (Herbicidal rate of 90% or more (almost completely withered))
- M: velvetleaf, herbicidal effect grade [8]: 3 (Herbicidal rate of 40% or more and less than 70%)
- Herbicidal effect by foliage application, R: persian speedwell [9, 29]: 5 (Herbicidal rate of 90% or more (almost completely withered))
- herbicidal effect on rice flat sedge (E) ([10]; 320 g/ha): 5 (Herbicidal rate of 90% or more (almost completely withered))
- herbicidal effect on barnyard grass (H) ([11]; 320 g/ha): 4 (Herbicidal rate of 70% or more and less than 90%)
- F: southern crabgrass, herbicidal effect grade [12]: 0 (Herbicidal rate of 5% or less (almost no effect))
- K: Italian ryegrass, herbicidal effect grade [13]: 1 (Herbicidal rate of 5% or more and less than 20%)
- Herbicidal effect by foliage application, I: wild oat [14, 29]: 4 (Herbicidal rate of 70% or more and less than 90%)
- N: redroot pigweed, herbicidal effect grade [15]: 5 (Herbicidal rate of 90% or more (almost completely withered))
- Herbicidal effect by foliage application, K: Italian ryegrass [16, 29]: 4 (Herbicidal rate of 70% or more and less than 90%)
- Herbicidal effect by foliage application, L: windgrass [17, 29]: 5 (Herbicidal rate of 90% or more (almost completely withered))
- Herbicidal effect by foliage application, F: southern crabgrass [18, 29]: 3 (Herbicidal rate of 40% or more and less than 70%)
- Herbicidal effect by foliage application, P: chickweed [19, 29]: 5 (Herbicidal rate of 90% or more (almost completely withered))
- G: green foxtail, herbicidal effect grade [20]: 3 (Herbicidal rate of 40% or more and less than 70%)
- R: persian speedwell, herbicidal effect grade [21]: 3 (Herbicidal rate of 40% or more and less than 70%)
- J: blackgrass, herbicidal effect grade [27]: 4 (Herbicidal rate of 70% or more and less than 90%)
- herbicidal effect on Chinese sprangletop (D) ([22]; 320 g/ha): 4 (Herbicidal rate of 70% or more and less than 90%)
- I: wild oat, herbicidal effect grade [23]: 2 (Herbicidal rate of 20% or more and less than 40%)
- Herbicidal effect by foliage application, H: barnyard grass [24, 29]: 5 (Herbicidal rate of 90% or more (almost completely withered))
- Herbicidal effect by foliage application, J: blackgrass [25, 29]: 4 (Herbicidal rate of 70% or more and less than 90%)
- O: lambsquarters, herbicidal effect grade [26]: 5 (Herbicidal rate of 90% or more (almost completely withered))
